Source: patent US20050209278A1, “Piperidinyl- and piperazinyl-sulfonylmethyl hydroxamic acids and their use as protease inhibitors” (priority 2002, published 2005)
Where a name gives a salt, the structure may show the parent alone.

Legend:
Assay type in all cases: biochemical
[1] = target: T1, MMP-13 (Homo sapiens, UniProt P45452); assay: MMP-13 inhibition (in vitro Ki); conditions: Table 8; read-out: MMP-13 Ki
T1 construct: made in house; host or cells: baculovirus / insect cells

[2] = target: T2, MMP-1 (Homo sapiens, UniProt P03956); assay: MMP-1 inhibition (in vitro Ki); conditions: Table 8; read-out: MMP-1 Ki
T2 construct: made in house; host or cells: MMP-1-transfected HT-1080 cells (spent media)
T2 sequence (P03956 100-469): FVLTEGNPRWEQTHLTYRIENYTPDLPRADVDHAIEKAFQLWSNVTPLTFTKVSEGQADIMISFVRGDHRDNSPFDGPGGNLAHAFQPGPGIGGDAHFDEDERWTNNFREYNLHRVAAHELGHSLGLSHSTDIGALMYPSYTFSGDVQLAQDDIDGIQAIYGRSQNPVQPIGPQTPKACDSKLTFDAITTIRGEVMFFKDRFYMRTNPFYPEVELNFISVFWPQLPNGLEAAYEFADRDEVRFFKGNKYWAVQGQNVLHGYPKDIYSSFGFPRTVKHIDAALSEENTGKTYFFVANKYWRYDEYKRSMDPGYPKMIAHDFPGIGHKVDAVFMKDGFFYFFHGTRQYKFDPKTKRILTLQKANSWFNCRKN

[3] = target: T3, MMP-2 (Homo sapiens, UniProt P08253); assay: MMP-2 inhibition (in vitro Ki); conditions: Table 8; read-out: MMP-2 Ki
T3 construct: made in house; host or cells: MMP-2-transfected p2AHT2 cells
T3 sequence (P08253 110-660): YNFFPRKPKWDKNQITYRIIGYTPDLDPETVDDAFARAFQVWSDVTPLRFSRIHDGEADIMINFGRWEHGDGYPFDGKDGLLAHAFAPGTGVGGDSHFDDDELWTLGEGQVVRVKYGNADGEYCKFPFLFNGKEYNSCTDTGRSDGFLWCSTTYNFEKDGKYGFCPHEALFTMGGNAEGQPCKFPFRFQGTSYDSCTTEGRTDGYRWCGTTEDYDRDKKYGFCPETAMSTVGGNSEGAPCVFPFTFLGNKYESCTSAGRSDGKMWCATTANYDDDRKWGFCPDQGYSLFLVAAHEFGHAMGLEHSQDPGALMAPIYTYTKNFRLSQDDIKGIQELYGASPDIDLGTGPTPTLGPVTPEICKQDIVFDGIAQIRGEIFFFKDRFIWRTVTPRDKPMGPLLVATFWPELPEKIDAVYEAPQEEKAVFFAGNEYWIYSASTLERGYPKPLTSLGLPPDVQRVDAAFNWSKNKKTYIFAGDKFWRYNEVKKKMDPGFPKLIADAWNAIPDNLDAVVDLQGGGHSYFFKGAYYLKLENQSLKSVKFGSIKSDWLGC

[4] = target: T4, MMP-14 (Homo sapiens, UniProt P50281); assay: MMP-14 inhibition (in vitro Ki); conditions: Table 8; read-out: MMP-14 Ki
T4 construct: The catalytic domain enzyme was expressed in E. coli inclusion bodies, solubilized in urea; made in house

[5] = target: T5, MMP-9 (Homo sapiens, UniProt P14780); assay: MMP-9 inhibition (in vitro Ki); conditions: Table 8; read-out: MMP-9 Ki
T5 construct: made in house; host or cells: MMP-9-transfected HT1080 cells (spent media)
T5 sequence (P14780 107-707 limits assumed): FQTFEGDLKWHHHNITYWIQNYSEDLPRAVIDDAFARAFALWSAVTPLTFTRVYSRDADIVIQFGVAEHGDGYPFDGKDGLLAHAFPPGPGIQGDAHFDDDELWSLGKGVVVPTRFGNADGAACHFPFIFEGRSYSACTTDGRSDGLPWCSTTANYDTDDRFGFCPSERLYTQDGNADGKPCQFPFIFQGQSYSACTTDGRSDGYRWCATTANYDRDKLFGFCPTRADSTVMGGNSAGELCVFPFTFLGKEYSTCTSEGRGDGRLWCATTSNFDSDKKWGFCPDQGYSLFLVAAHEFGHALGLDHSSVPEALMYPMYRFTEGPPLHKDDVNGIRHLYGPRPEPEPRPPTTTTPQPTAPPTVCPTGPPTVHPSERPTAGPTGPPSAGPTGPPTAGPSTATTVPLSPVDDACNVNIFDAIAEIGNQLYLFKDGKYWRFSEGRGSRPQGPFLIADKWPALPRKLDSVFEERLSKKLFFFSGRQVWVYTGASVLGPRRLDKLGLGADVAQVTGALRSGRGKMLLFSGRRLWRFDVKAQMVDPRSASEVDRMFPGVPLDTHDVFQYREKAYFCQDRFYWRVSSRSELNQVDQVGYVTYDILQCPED

Row | Ki [1] | Ki [2] | Ki [3] | Ki [4] | Ki [5] | SMILES
1 | 1.99 nM | 1990 nM | 12.5 nM | 1410 nM | 10 nM | CCCOCCCCC1CCN(S(=O)(=O)C2(C(=O)NO)CCOCC2)CC1 [Example A39, 4-[4-(4-propoxy-butyl)-piperidine-1-sulfonyl]-tetrahydro-pyran-4-carboxylic Acid Hydroxyamide]
2 | 7.95 nM | > 10000 nM | 8.38 nM | 7210 nM | 1.79 nM | CCCCCCOCC1CCN(S(=O)(=O)C2(C(=O)NO)CCOCC2)CC1 [Example A41, 4-(4-hexyloxymethyl-piperidine-1-sulfonyl)-tetrahydro-pyran-4-carboxylic Acid Hydroxyamide]
3 | 0.58 nM | 3100 nM | 0.33 nM | 757 nM | 0.19 nM | O=C(NO)C1(S(=O)(=O)N2CCC(CCCCCC(F)(F)F)CC2)CCOCC1 [Example A43, 4-[4-(6,6,6-Trifluoro-hexyl)-piperidine-1-sulfonyl]-tetrahydro-pyran-4-carboxylic Acid Hydroxyamide]
4 | 0.52 nM | 1500 nM | 5.97 nM | 3610 nM | 17.5 nM | O=C(NO)C1(S(=O)(=O)N2CCC(CCCCOCCC(F)(F)F)CC2)CCOCC1 [Example A46, 4-{4-[4-(3,3,3-trifluoro-propoxy)-butyl]-piperidine-1-sulfonyl}-tetrahydro-pyran-4-carboxylic Acid Hydroxyamide]
5 | 12.7 nM | > 10000 nM | 18.6 nM | > 10000 nM | 10.2 nM | CCCCCOCCC1CCN(S(=O)(=O)C2(C(=O)NO)CCOCC2)CC1 [Example A47, 4-[4-(2-pentyloxy-ethyl)-piperidine-1-sulfonyl]-tetrahydro-pyran-4-carboxylic Acid Hydroxyamide]
6 | 1.13 nM | > 10000 nM | 3.49 nM | 2710 nM | 8.23 nM | O=C(NO)C1(S(=O)(=O)N2CCC(OCCCCCCC(F)(F)F)CC2)CCOCC1 [Example A48, 4-[4-(7,7,7-trifluoro-heptyloxy)-piperidine-1-sulfonyl]-tetrahydro-pyran-4-carboxylic Acid Hydroxyamide]
7 | 2.87 nM | > 10000 nM | 3.81 nM | 6740 nM | 3.1 nM | O=C(NO)C1(S(=O)(=O)N2CCC(OCCCCCC(F)(F)F)CC2)CCOCC1 [Example A49, 4-[4-(6,6,6-trifluoro-hexyloxy)-piperidine-1-sulfonyl]-tetrahydro-pyran-4-carboxylic Acid Hydroxyamide]
8 | 0.6 nM | > 10000 nM | 1.57 nM | 4560 nM | 7.1 nM | O=C(NO)C1(S(=O)(=O)N2CCC(OCCCCCC(F)(F)C(F)(F)F)CC2)CCOCC1 [Example A50, 4-[4-(6,6,7,7,7-pentafluoro-heptyloxy)-piperidine-1-sulfonyl]-tetrahydro-pyran-4-carboxylic Acid Hydroxyamide]
9 | 0.27 nM | 5110 nM | 0.27 nM | 1260 nM | 1.01 nM | O=C(NO)C1(S(=O)(=O)N2CCC(CCCCCCC(F)(F)C(F)(F)F)CC2)CCOCC1 [Example A51, 4-[4-(7,7,8,8,8-pentafluoro-octyl)-piperidine-1-sulfonyl]-tetrahydro-pyran-4-carboxylic Acid Hydroxyamide]
10 | 0.23 nM | 3930 nM | 0.55 nM | 922 nM | 1.03 nM | O=C(NO)C1(S(=O)(=O)N2CCC(CCCCCCCC(F)(F)F)CC2)CCOCC1 [Example A52, 4-[4-(8,8,8-trifluoro-octyl)-piperidine-1-sulfonyl]-tetrahydro-pyran-4-carboxylic Acid Hydroxyamide]
11 | 2.45 nM | 2880 nM | 1.1 nM | 2360 nM | 2.46 nM | O=C(NO)C1(S(=O)(=O)N2CCC(CCCCC(F)(F)C(F)(F)F)CC2)CCOCC1 [Example A53, 4-[4-(5,5,6,6,6-pentafluoro-hexyl)-piperidine-1-sulfonyl]-tetrahydro-pyran-4-carboxylic Acid Hydroxyamide]
12 | 0.67 nM | > 10000 nM | 1.06 nM | 3410 nM | 0.81 nM | O=C(NO)C1(S(=O)(=O)N2CCC(CCCCCC(F)(F)C(F)(F)F)CC2)CCOCC1 [Example A54, 4-[4-(6,6,7,7,7-pentafluoro-heptyl)-piperidine-1-sulfonyl]-tetrahydro-pyran-4-carboxylic Acid Hydroxyamide]
13 | 0.14 nM | 2470 nM | 0.47 nM | 1010 nM | 0.15 nM | O=C(NO)C1(S(=O)(=O)N2CCC(c3ccc(CCC(F)(F)C(F)(F)F)cn3)CC2)CCCCC1 [Example A56, N-hydroxy-1-({4-[5-(3,3,4,4,4-pentafluorobutyl)pyridin-2-yl]piperidin-1-yl}sulfonyl)cyclohexanecarboxamide Hydrochloride]
14 | 0.34 nM | 1570 nM | 0.53 nM | 2020 nM | 0.48 nM | O=C(NO)C1(S(=O)(=O)N2CCC(c3ccc(OCC(F)(F)F)cn3)CC2)CCOCC1 [Example A57, N-hydroxy-4-({4-[5-(2,2,2-trifluoroethoxy)pyridin-2-yl]piperidin-1-yl}sulfonyl)tetrahydro-2H-pyran-4-carboxamide Hydrochloride]
15 | 0.24 nM | 1550 nM | 0.52 nM | 6230 nM | 1.37 nM | O=C(NO)C1(S(=O)(=O)N2CCC(c3ccc(OCC(F)(F)C(F)(F)F)cn3)CC2)CCOCC1 [Example A58, N-hydroxy-4-({4-[5-(2,2,3,3,3-pentafluoropropoxy)pyridin-2-yl]piperidin-1-yl}sulfonyl)tetrahydro-2H-pyran-4-carboxamide Hydrochloride]
16 | 0.62 nM | 1660 nM | 0.76 nM | 5150 nM | 1.54 nM | O=C(NO)C1(S(=O)(=O)N2CCC(c3ccc(OCC(F)(F)C(F)F)cn3)CC2)CCOCC1 [Example A59, N-hydroxy-4-({4-[5-(2,2,3,3-tetrafluoropropoxy)pyridin-2-yl]piperidin-1-yl}sulfonyl)tetrahydro-2H-pyran-4-carboxamide Hydrochloride]
17 | 0.4 nM | 9180 nM | 1.23 nM | 6070 nM | 0.63 nM | CCC(CC)(C(=O)NO)S(=O)(=O)N1CCC(c2ccc(CCC(F)(F)C(F)(F)F)cn2)CC1 [Example A60, 2-ethyl-N-hydroxy-2-({4-[5-(3,3,4,4,4-pentafluorobutyl)pyridin-2-yl]piperidin-1-yl}sulfonyl)butanamide Hydrochloride]

Row | SMILES | Ki [1] | Ki [2] | Ki [3] | Ki [4] | Ki [5]
18 | O=C(NO)C1(S(=O)(=O)N2CCC(CCCCOCCCC(F)(F)F)CC2)CCOCC1 [Example A40, 4-{4-[4-(4,4,4-trifluoro-butoxy)-butyl]-piperidine-1-sulfonyl}-tetrahydro-pyran-4-carboxylic Acid Hydroxyamide] | 0.6 nM | 4260 nM | 6.99 nM | 3420 nM | 46.4 nM
19 | O=C(NO)C1(S(=O)(=O)N2CCC(COCCCC(F)(F)F)CC2)CCOCC1 [Example A42, 4-[4-(4,4,4-trifluoro-butoxymethyl)-piperidine-1-sulfonyl]-tetrahydro-pyran-4-carboxylic Acid Hydroxyamide] | 33.3 nM | > 10000 nM | 22 nM | > 10000 nM | 28.6 nM
20 | CCCCOCCC1CCN(S(=O)(=O)C2(C(=O)NO)CCOCC2)CC1 [Example A44, 4-[4-(2-butoxy-ethyl)-piperidine-1-sulfonyl]-tetrahydro-pyran-4-carboxylic Acid Hydroxyamide] | 38.2 nM | > 10000 nM | 27.3 nM | > 10000 nM | 12.5 nM
21 | O=C(NO)C1(S(=O)(=O)N2CCC(CCOCCCC(F)(F)F)CC2)CCOCC1 [Example A45, 4-{4-[2-(4,4,4-trifluoro-butoxy)-ethyl]-piperidine-1-sulfonyl}-tetrahydro-pyran-4-carboxylic Acid Hydroxyamide] | 12.2 nM | > 10000 nM | 23.6 nM | > 10000 nM | 16.8 nM
